The values below come from ChEMBL document CHEMBL5226375, “Synthesis and Comprehensive in Vivo Activity Profiling of Olean-12-en-28-ol, 3β-Pentacosanoate in Experimental Autoimmune Encephalomyelitis: A Natural Remyelinating and Anti-Inflammatory Agent” (J Nat Prod, 2023).

Assay [1] relates to Mus musculus. As to the kind of experiment: Anti-inflammatory activity against MOG35-55-induced experimental autoimmune encephalomyelitis C57BL/6 mouse model assessed as fold change in IL6 gene expression in brain at 300 mg/kg/day, ig for 14 days starting from 12th day of immunization by RT-qPCR analysis relative to control. Type of assay: functional. Conditions: time 14 day. A general note: In qPCR the cycle at which signal appears reflects the starting amount.

Assay [2] relates to Mus musculus. Put plainly: Anti-inflammatory activity against MOG35-55-induced experimental autoimmune encephalomyelitis C57BL/6 mouse model assessed as reduction in TGB1 protein expression in brain at 300 to 600 mg/kg/day, ig for 14 days starting from 12th day of immunization by western blot analysis. The format is functional, organism-based. Conditions: dose 300-600 mg/kg/day, time 14.0 day.

Assay [3] deals with Mus musculus. As to the kind of experiment: Anti-inflammatory activity against MOG35-55-induced experimental autoimmune encephalomyelitis C57BL/6 mouse model assessed as fold change in CD4 gene expression in brain at 600 mg/kg/day, ig for 14 days starting from 12th day of immunization by RT-qPCR analysis relative to control. The format is functional. Conditions: time 14 day.

The subject of assay [4] is Mus musculus. As to the kind of experiment: Anti-inflammatory activity against MOG35-55-induced experimental autoimmune encephalomyelitis C57BL/6 mouse model assessed as fold change in HIF1A gene expression in brain at 600 mg/kg/day, ig for 14 days starting from 12th day of immunization by RT-qPCR analysis relative to control. Type of assay: functional. Conditions: time 14 day.

Assay [5] deals with Mus musculus. As to the kind of experiment: Anti-inflammatory activity against MOG35-55-induced experimental autoimmune encephalomyelitis C57BL/6 mouse model assessed as reduction in serum Th1 cytokine level by measuring reduction in IL-2 level at 600 mg/kg/day, ig for 14 days starting from 12th day of immunization by ELISA. Conditions: time 14.0 day. Type of assay: functional, organism-based.

Assay [6] has as its system Mus musculus. Put plainly: Anti-inflammatory activity against MOG35-55-induced experimental autoimmune encephalomyelitis C57BL/6 mouse model assessed as methylation of CpG sites of IL13 gene promoter in brain at 600 mg/kg, ig for 14 days starting from 12th day of immunization by PCR analysis (reference value: 57.3 +/-8%). Type of assay: functional. The conditions noted are these: time 14 day.

The subject of assay [7] is Mus musculus. Put plainly: Anti-inflammatory activity against MOG35-55-induced experimental autoimmune encephalomyelitis C57BL/6 mouse model assessed as reduction in serum Th1 cytokine level by measuring reduction in TNF-alpha level at 0.3 mg/kg/day, ig for 14 days starting from 12th day of immunization by ELISA. The format is functional, organism-based. The conditions noted are these: time 14.0 day. A general note: ELISA stands for enzyme-linked immunosorbent assay.

Assay [8] deals with Mus musculus. Put plainly: Anti-inflammatory activity against MOG35-55-induced experimental autoimmune encephalomyelitis C57BL/6 mouse model assessed as fold change in CCL5 gene expression in brain at 0.15 mg/kg/day, ig for 14 days starting from 12th day of immunization by RT-qPCR analysis relative to control. The format is functional. Conditions: time 14 day.
For assay [9], the system named is Mus musculus. Put plainly: Anti-inflammatory activity against MOG35-55-induced experimental autoimmune encephalomyelitis C57BL/6 mouse model assessed as reduction in EAE symptoms by measuring reduction in clinical score at 0.15 to 0.3 mg/kg/day, ig starting from 12th day of immunization and measured on day 14 post-immunization. The format is functional, organism-based. Conditions: dose 0.15-0.3 mg/kg/day, time 2.0 day.

Assay [10] has as its system Mus musculus. As to the kind of experiment: Anti-inflammatory activity against MOG35-55-induced experimental autoimmune encephalomyelitis C57BL/6 mouse model assessed as fold change in MAG gene expression in brain at 0.15 mg/kg/day, ig for 14 days starting from 12th day of immunization by RT-qPCR analysis relative to control. Type of assay: functional. Conditions: time 14 day.

Assay [11] relates to Mus musculus. Put plainly: Anti-inflammatory activity against MOG35-55-induced experimental autoimmune encephalomyelitis C57BL/6 mouse model assessed as fold change in CXCL10 gene expression in brain at 0.15 mg/kg/day, ig for 14 days starting from 12th day of immunization by RT-qPCR analysis relative to control. Type of assay: functional. Conditions: time 14 day.
The subject of assay [12] is Mus musculus. Put plainly: Anti-inflammatory activity against MOG35-55-induced experimental autoimmune encephalomyelitis C57BL/6 mouse model assessed as reduction in serum chemokines level by measuring reduction in IL-3 level at 0.3 mg/kg/day, ig for 14 days starting from 12th day of immunization by ELISA. The conditions noted are these: time 14.0 day. Type of assay: functional, organism-based.

Assay [13] has as its system Mus musculus. As to the kind of experiment: Anti-inflammatory activity against MOG35-55-induced experimental autoimmune encephalomyelitis C57BL/6 mouse model assessed as methylation of CpG sites of IL18 gene promoter in brain at […], ig for 14 days starting from 12th day of immunization by PCR analysis (reference value: 29.2 +/-8%). The conditions noted are these: time 14 day. Type of assay: functional.

Activity calls are given as the source filed them. No cut-off for these calls is given here.

Consider `CCCCCCCCCCCCCCCCCCCCCCCCC(=O)O[C@H]1CC[C@]2(C)[C@H]3CC=C4[C@@H]5CC(C)(C)CC[C@]5(CO)CC[C@@]4(C)[C@]3(C)CC[C@H]2C1(C)C`, for which the “fold change (FC)” value in assay [1] amounted to 3.18; in assay [3] it was 1.55; in assay [4], 1.77. In addition, the result in [2] and in [5] was Active. Further, the Activity in [6] is given as 47.9%.
For the molecule `CCCCCCCCc1ccc(CCC(N)(CO)CO)cc1` [FINGOLIMOD], the result in [7], in [9] and in assay [12] was Active. Moreover, the “fold change (FC)” value in assay [8] was 4.46; in [10], -1.85; in assay [11] it was 5.21. The Activity in assay [13] came out at 29.5%.
